According to patent US11166924B2, “N-methyl-d-aspartate receptor allosteric modulators and methods for their use” (Qingdao Primedicine Pharmaceutical Company, Ltd., priority 2016, dated 2021):

Assays:
[1] = molecular target: T1, GluN2A NMDARs in GluN2B-lacking neurons (Mus musculus, UniProt P35436+P35438); assay: Whole-cell recordings in GluN2B-knockout cortical neurons; type: cell-based; details: compared to NMDA control
T1 construct: endogenous in cells; host or cells: primary cortical neurons from GluN2B-knockout mouse embryos
T1 sequence (P35436 23-1464, other chains not shown): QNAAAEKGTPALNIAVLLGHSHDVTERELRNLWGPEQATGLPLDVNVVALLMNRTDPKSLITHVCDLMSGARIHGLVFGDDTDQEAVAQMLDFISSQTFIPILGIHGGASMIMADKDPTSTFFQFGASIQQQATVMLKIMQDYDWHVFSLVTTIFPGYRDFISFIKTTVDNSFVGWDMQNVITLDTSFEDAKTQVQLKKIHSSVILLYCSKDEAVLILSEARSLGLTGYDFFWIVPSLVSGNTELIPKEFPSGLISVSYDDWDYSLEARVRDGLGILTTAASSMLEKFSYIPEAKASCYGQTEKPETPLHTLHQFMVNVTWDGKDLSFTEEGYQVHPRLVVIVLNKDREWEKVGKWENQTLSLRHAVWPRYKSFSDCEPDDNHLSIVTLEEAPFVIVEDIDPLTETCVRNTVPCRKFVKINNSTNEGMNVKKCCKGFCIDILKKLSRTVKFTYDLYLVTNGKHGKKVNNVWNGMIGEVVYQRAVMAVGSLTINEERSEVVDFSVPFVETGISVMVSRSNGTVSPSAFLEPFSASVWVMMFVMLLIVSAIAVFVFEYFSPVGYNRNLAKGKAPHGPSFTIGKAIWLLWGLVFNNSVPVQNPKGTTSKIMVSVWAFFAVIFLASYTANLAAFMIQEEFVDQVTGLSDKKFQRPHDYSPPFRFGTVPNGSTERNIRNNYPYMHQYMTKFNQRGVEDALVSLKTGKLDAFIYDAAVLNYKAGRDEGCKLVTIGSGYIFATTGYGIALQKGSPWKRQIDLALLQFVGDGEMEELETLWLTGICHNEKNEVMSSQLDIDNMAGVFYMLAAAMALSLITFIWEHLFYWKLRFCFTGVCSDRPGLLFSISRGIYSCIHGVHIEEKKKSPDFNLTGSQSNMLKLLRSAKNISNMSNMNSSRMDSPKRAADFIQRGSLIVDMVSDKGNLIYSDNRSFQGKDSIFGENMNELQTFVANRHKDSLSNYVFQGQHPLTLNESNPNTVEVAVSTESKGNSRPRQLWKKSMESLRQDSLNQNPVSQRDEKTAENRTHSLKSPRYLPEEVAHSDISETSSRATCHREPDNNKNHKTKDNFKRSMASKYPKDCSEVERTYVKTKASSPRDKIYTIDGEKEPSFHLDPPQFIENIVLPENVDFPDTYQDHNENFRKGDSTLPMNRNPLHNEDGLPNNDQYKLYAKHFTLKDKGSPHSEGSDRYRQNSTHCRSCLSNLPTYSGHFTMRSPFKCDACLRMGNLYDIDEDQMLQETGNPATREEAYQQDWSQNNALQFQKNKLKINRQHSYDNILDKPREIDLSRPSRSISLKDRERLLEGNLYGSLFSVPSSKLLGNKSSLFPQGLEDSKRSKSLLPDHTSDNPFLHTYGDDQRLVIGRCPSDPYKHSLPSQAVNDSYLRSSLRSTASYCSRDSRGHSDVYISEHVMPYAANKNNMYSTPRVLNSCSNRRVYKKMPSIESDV

[2] = Pharmacokinetics after i.v. injection, CSF and serum by HPLC-ECD; type: in vivo, rat
Procedure: Npam43 was isolated from the CSF and serum matrix using high performance liquid chromatography and quantified via electrochemical detection. The system consisted of an ESA 582 pump (Bedford, Mass.), a pulse damper (Scientific Systems Inc., State College, Pa.), a Rheodyne Inert manual injector (model 9125i, 20 μL injection loop; Rohnert Park, Calif.), a Tosoh Bioscience Super ODS TSK column (2 μm particle, 2 mm×10 mm; Montgomeryville, Pa.), and an Antec Leyden Intro Electrochemical detector with VT-03 flow cell with a Ag/AgCl reference electrode (Vapplied=+800 mV; Leyden, The Netherlands). The mobile phase was a 20 mM phosphate buffer-acetonitrile (80:20, v/v) mixture, pH 7.0, flowed through the system at 0.1 mL/min. The column was maintained at 40° C. throughout the analysis and the injection volume was 8 uL. Prior to use, the mobile was filtered through a […] membrane and degassed using a vacuum pump and maintained under helium purging during experimental testing. EZChrome Elite software (Scientific Software, Pleasanton, Calif.) was used to acquire and analyze chromatographic data.
Samples were prepared by mixing aliquots (50:50) of the specimen with acetonitrile. The samples were mixed, allowed to rest at ambient temperature for 10 min and centrifuged at 5000 g for 5 min. Eight microliters of the supernatant was injected.
CSF and serum samples generated from the in vivo studies were thawed, and 8 μl was transferred to individual Eppendorf tubes. The internal standard (IS) of 2 μl of 0.5 μg/ml Npam50 was then added, followed by 22 μl of acetonitrile, after which samples were vortexed for 5-10 s and centrifuged for 5 min at 20,000×g to sediment precipitated protein. […]
An in-vivo pharmacological profile of Npam43 was evaluated using Sprague Dawley mature (˜300 g) rats. Npam43 was injected intravenously (i.v) at different doses ranging from 0.5-5 mg/kg and cerebrospinal fluid (CSF) and serum samples were extracted and analyzed using a high performance liquid chromatography electrochemical detection assay (HPLC-ECD). […]

[3] = molecular target: T2, GluN1^L135Q/GluN2A^F115S (Rattus norvegicus, UniProt P35439+Q00959, F115S/L135Q); assay: Patch clamp in HEK293 cells expressing double mutant GluN1 L135Q/GluN2A F115S; type: cell-based
T2 construct: expressed in transfected cells; host or cells: HEK293
T2 sequence (Q00959 23-1464 F115S, other chains not shown): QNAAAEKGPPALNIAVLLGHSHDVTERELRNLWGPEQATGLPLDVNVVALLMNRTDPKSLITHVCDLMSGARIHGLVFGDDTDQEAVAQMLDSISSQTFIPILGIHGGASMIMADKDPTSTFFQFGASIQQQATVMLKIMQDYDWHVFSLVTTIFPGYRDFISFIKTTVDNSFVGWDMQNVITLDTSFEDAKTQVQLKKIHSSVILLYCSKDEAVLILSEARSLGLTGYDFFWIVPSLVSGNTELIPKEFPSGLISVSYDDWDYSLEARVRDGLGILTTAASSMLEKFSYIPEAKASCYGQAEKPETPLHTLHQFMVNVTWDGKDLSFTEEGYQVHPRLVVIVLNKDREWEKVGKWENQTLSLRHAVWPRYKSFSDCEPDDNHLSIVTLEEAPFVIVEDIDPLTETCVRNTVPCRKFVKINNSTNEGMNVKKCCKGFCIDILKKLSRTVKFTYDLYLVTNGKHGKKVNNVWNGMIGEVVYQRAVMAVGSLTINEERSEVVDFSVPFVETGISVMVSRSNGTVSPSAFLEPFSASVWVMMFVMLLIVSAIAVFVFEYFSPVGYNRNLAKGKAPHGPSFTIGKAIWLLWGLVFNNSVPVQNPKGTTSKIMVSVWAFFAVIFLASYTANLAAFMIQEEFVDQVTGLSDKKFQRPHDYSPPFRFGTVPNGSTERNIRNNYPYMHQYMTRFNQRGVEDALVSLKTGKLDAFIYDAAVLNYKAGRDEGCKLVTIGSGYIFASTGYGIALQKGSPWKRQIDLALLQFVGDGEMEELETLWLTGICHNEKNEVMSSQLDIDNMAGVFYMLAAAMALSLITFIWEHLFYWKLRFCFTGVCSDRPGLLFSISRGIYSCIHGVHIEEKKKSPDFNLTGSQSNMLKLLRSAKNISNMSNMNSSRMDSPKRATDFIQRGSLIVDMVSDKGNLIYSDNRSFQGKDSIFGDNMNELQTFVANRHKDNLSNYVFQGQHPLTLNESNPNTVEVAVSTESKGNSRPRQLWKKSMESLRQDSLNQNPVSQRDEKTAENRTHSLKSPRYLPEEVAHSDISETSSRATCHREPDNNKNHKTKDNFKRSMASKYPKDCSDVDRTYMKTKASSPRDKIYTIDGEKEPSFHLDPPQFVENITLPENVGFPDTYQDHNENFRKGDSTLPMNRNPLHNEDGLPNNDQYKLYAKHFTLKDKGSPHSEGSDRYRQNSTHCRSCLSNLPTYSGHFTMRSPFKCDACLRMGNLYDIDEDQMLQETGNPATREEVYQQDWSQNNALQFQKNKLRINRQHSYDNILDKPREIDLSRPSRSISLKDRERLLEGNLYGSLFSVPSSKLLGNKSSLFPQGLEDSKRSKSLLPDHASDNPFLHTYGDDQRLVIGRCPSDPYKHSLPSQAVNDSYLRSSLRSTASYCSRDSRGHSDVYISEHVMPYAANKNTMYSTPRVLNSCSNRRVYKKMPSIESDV
Procedure: Whole cell patch-clamp recordings were performed under voltage-clamp mode using an Axopatch 200B or 1D patch-clamp amplifier (Molecular Devices). Whole-cell currents were recorded at a holding potential of −60 mV unless indicated elsewhere, and signals were filtered at 2 kHz, digitized at 10 kHz (Digidata 1322A). Recording pipettes (3-5 MΩ) were filled with intracellular solution containing (mM): CsCl 140, HEPES 10, Mg-ATP 4, QX-314 5, pH 7.20; osmolarity, 290-295 mOsm. BAPTA (10 mM) was added in the intracellular solution (unless otherwise specified). The coverslips were continuously superfused with extracellular solution containing (mM): NaCl 140, KCl 5.4, HEPES 10, CaCl2 1.3, glucose 20, pH 7.4; osmolarity, 305-315 mOsm. NMDA-induced currents were applied by NMDA through perfusion fast-step (Warner Instruments). With perfusion fast-step system, NMDA application was achieved by using a two-square barrel glass tubing and depending on the age of the cultured neurons, CNQX (10 μM), TTX (0.5 μM) or BIC (10 μM) were added in the extracellular solution to minimize the activation of ionotropic glutamate receptors and voltage-gated sodium channels, respectively. All experiments were performed at room temperature. Recordings from at least six HEK293 cells/neurons were performed for all active compounds. […]

Positive modulation of NMDAR currents ([1]; 100 μM bath, NMDA 20 μM, glycine 2 μM) [%]	Potentiation effect with co-applied ifenprodril (IF) ([1]; GluN2B-knockout neurons) [%]	NMDAR current change with NVP-AAM007 (0.2 μM) and Npam02 ([1]; Npam02 100 μM) [%]	SMILES	half-life ([2]; Sprague-Dawley, rat, CSF, iv, rats, estimated) [h]	Blood-brain-barrier penetration ([2]; i.v. 0.5-5 mg/kg, Sprague Dawley rats)	Metabolic stability in the CSF and serum ([2]; i.v., rats, FIG. 22)	Net Difference potentiation ([3]; GluN1 L135Q/GluN2A F115S double mutation, normalized to wild-type) [%]	Relative potentiation ([3]; Table 3, GluN1 L135Q/GluN2A F115S) [%]
44.72±4.29	42.22±4.03	88.87±3.45	COc1cccc(/C=N/NC(=O)c2ccccc2C)c1O [Npam02, (E)-N′-(2-hydroxy-3-methoxybenzylidene)-2-methylbenzohydrazide]	–	–	–	–	–
–	–	–	CCOc1cc(Cl)c(Cl)c(/C=N/NC(=O)c2ccccc2Br)c1O [Npam43, (E)-2-bromo-N′-(2,3-dichloro-5-ethoxy-6-hydroxybenzylidene)benzohydrazide]	2.95 ± 0.6	effective at penetrating the blood-brain-barrier (BBB)	moderate metabolic stability	−93.9±10.3	12.7 ± 1.8
